Measured values taken from ChEMBL document CHEMBL3045835, “Comparative study of conventional and microwave-assisted synthesis of some Schiff bases and their potential as antimicrobial agents” (2012).

Columns and labels:
Assay type in all cases: functional
[1] = test system: Escherichia coli; experiment: Antibacterial activity against Escherichia coli MTCC 1573 at 1500 ug/ml after 18 hr by cup-plate method; conditions: MTCC 1573, 18 h, read-out: DIZ
[2] = test system: Bacillus subtilis; experiment: Antibacterial activity against Bacillus subtilis MTCC 441 at 200 ug/ml after 18 hr by cup plate method; conditions: MTCC 441, 18 h, read-out: DIZ
[3] = test system: Staphylococcus aureus; experiment: Antibacterial activity against Staphylococcus aureus MTCC 1430 at 500 ug/ml after 18 hr by cup-plate method; conditions: MTCC 1430, 18 h, read-out: DIZ
[4] = test system: Aspergillus niger; experiment: Antifungal activity against Aspergillus niger MTCC 2546 after 24 hr by broth dilution method; conditions: MTCC 2546, 24 h
[5] = test system: Penicillium chrysogenum; experiment: Antifungal activity against Penicillium chrysogenum MTCC 161 after 24 hr by broth dilution method; conditions: MTCC 161, 24 h
[6] = test system: Staphylococcus aureus; experiment: Antibacterial activity against Staphylococcus aureus MTCC 1430 at 100 ug/ml after 18 hr by cup-plate method; conditions: MTCC 1430, 18 h, read-out: DIZ
[7] = test system: Pseudomonas fluorescens; experiment: Antibacterial activity against Pseudomonas fluorescens MTCC 2421 at 200 ug/ml after 18 hr by cup-plate method; conditions: MTCC 2421, 18 h, read-out: DIZ
[8] = test system: Micrococcus luteus; experiment: Antibacterial activity against Micrococcus luteus MTCC 1538 at 500 ug/ml after 18 hr by cup-plate method; conditions: MTCC 1538, 18 h, read-out: DIZ
[9] = test system: Micrococcus luteus; experiment: Antibacterial activity against Micrococcus luteus MTCC 1538 at 200 ug/ml after 18 hr by cup-plate method; conditions: MTCC 1538, 18 h, read-out: DIZ
[10] = test system: Pseudomonas aeruginosa; experiment: Antibacterial activity against Pseudomonas aeruginosa MTCC 424 at 1500 ug/ml after 18 hr by cup-plate method; conditions: MTCC 424, 18 h, read-out: DIZ
[11] = test system: Escherichia coli; experiment: Antibacterial activity against Escherichia coli MTCC 1573 at 500 ug/ml after 18 hr by cup-plate method; conditions: MTCC 1573, 18 h, read-out: DIZ
[12] = test system: Escherichia coli; experiment: Antibacterial activity against Escherichia coli MTCC 1573 at 100 ug/ml after 18 hr by cup-plate method; conditions: MTCC 1573, 18 h, read-out: DIZ
[13] = test system: Penicillium chrysogenum; experiment: Antifungal activity against Penicillium chrysogenum MTCC 161 at 500 ug/ml after 18 hr by cup-plate method; conditions: MTCC 161, 18 h, read-out: DIZ
[14] = test system: Bacillus pumilus; experiment: Antibacterial activity against Bacillus pumilus MTCC 1456 at 100 ug/ml after 18 hr by cup-plate method; conditions: MTCC 1456, 18 h, read-out: DIZ
[15] = test system: Aspergillus niger; experiment: Antifungal activity against Aspergillus niger MTCC 2546 at 200 ug/ml after 18 hr by cup-plate method; conditions: MTCC 2546, 18 h, read-out: DIZ
[16] = test system: Pseudomonas fluorescens; experiment: Antibacterial activity against Pseudomonas fluorescens MTCC 2421 at 1500 ug/ml after 18 hr by cup-plate method; conditions: MTCC 2421, 18 h, read-out: DIZ
[17] = test system: Pseudomonas aeruginosa; experiment: Antibacterial activity against Pseudomonas aeruginosa MTCC 424 at 500 ug/ml after 18 hr by cup-plate method; conditions: MTCC 424, 18 h, read-out: DIZ
[18] = test system: Escherichia coli; experiment: Antibacterial activity against Escherichia coli MTCC 1573 after 24 hr by broth dilution method; conditions: MTCC 1573, 24 h
[19] = test system: Bacillus subtilis; experiment: Antibacterial activity against Bacillus subtilis MTCC 441 after 24 hr by broth dilution method; conditions: MTCC 441, 24 h
[20] = test system: Staphylococcus aureus; experiment: Antibacterial activity against Staphylococcus aureus MTCC 1430 at 1000 ug/ml after 18 hr by cup-plate method; conditions: MTCC 1430, 18 h, read-out: DIZ
[21] = test system: Pseudomonas aeruginosa; experiment: Antibacterial activity against Pseudomonas aeruginosa MTCC 424 at 200 ug/ml after 18 hr by cup-plate method; conditions: MTCC 424, 18 h, read-out: DIZ
[22] = test system: Penicillium chrysogenum; experiment: Antifungal activity against Penicillium chrysogenum MTCC 161 at 1500 ug/ml after 18 hr by cup-plate method; conditions: MTCC 161, 18 h, read-out: DIZ
[23] = test system: Bacillus subtilis; experiment: Antibacterial activity against Bacillus subtilis MTCC 441 at 1000 ug/ml after 18 hr by cup plate method; conditions: MTCC 441, 18 h, read-out: DIZ
[24] = test system: Bacillus subtilis; experiment: Antibacterial activity against Bacillus subtilis MTCC 441 at 100 ug/ml after 18 hr by cup plate method; conditions: MTCC 441, 18 h, read-out: DIZ
[25] = test system: Pseudomonas fluorescens; experiment: Antibacterial activity against Pseudomonas fluorescens MTCC 2421 at 500 ug/ml after 18 hr by cup-plate method; conditions: MTCC 2421, 18 h, read-out: DIZ
[26] = test system: Bacillus pumilus; experiment: Antibacterial activity against Bacillus pumilus MTCC 1456 at 1500 ug/ml after 18 hr by cup-plate method; conditions: MTCC 1456, 18 h, read-out: DIZ
[27] = test system: Aspergillus niger; experiment: Antifungal activity against Aspergillus niger MTCC 2546 at 500 ug/ml after 18 hr by cup-plate method; conditions: MTCC 2546, 18 h, read-out: DIZ
[28] = test system: Aspergillus niger; experiment: Antifungal activity against Aspergillus niger MTCC 2546 at 100 ug/ml after 18 hr by cup-plate method; conditions: MTCC 2546, 18 h, read-out: DIZ
[29] = test system: Pseudomonas fluorescens; experiment: Antibacterial activity against Pseudomonas fluorescens MTCC 2421 after 24 hr by broth dilution method; conditions: MTCC 2421, 24 h
[30] = test system: Micrococcus luteus; experiment: Antibacterial activity against Micrococcus luteus MTCC 1538 at 1500 ug/ml after 18 hr by cup-plate method; conditions: MTCC 1538, 18 h, read-out: DIZ
[31] = test system: Pseudomonas fluorescens; experiment: Antibacterial activity against Pseudomonas fluorescens MTCC 2421 at 1000 ug/ml after 18 hr by cup-plate method; conditions: MTCC 2421, 18 h, read-out: DIZ
[32] = test system: Bacillus subtilis; experiment: Antibacterial activity against Bacillus subtilis MTCC 441 at 500 ug/ml after 18 hr by cup plate method; conditions: MTCC 441, 18 h, read-out: DIZ
[33] = test system: Escherichia coli; experiment: Antibacterial activity against Escherichia coli MTCC 1573 at 1000 ug/ml after 18 hr by cup-plate method; conditions: MTCC 1573, 18 h, read-out: DIZ
[34] = test system: Pseudomonas aeruginosa; experiment: Antibacterial activity against Pseudomonas aeruginosa MTCC 424 at 1000 ug/ml after 18 hr by cup-plate method; conditions: MTCC 424, 18 h, read-out: DIZ
[35] = test system: Micrococcus luteus; experiment: Antibacterial activity against Micrococcus luteus MTCC 1538 after 24 hr by broth dilution method; conditions: MTCC 1538, 24 h
[36] = test system: Bacillus pumilus; experiment: Antibacterial activity against Bacillus pumilus MTCC 1456 at 1000 ug/ml after 18 hr by cup-plate method; conditions: MTCC 1456, 18 h, read-out: DIZ
[37] = test system: Bacillus subtilis; experiment: Antibacterial activity against Bacillus subtilis MTCC 441 at 1500 ug/ml after 18 hr by cup plate method; conditions: MTCC 441, 18 h, read-out: DIZ
[38] = test system: Micrococcus luteus; experiment: Antibacterial activity against Micrococcus luteus MTCC 1538 at 100 ug/ml after 18 hr by cup-plate method; conditions: MTCC 1538, 18 h, read-out: DIZ
[39] = test system: Aspergillus niger; experiment: Antifungal activity against Aspergillus niger MTCC 2546 at 1500 ug/ml after 18 hr by cup-plate method; conditions: MTCC 2546, 18 h, read-out: DIZ
[40] = test system: Staphylococcus aureus; experiment: Antibacterial activity against Staphylococcus aureus MTCC 1430 after 24 hr by broth dilution method; conditions: MTCC 1430, 24 h
[41] = test system: Pseudomonas aeruginosa; experiment: Antibacterial activity against Pseudomonas aeruginosa MTCC 424 after 24 hr by broth dilution method; conditions: MTCC 424, 24 h
[42] = test system: Staphylococcus aureus; experiment: Antibacterial activity against Staphylococcus aureus MTCC 1430 at 200 ug/ml after 18 hr by cup-plate method; conditions: MTCC 1430, 18 h, read-out: DIZ
[43] = test system: Pseudomonas fluorescens; experiment: Antibacterial activity against Pseudomonas fluorescens MTCC 2421 at 100 ug/ml after 18 hr by cup-plate method; conditions: MTCC 2421, 18 h, read-out: DIZ
[44] = test system: Pseudomonas aeruginosa; experiment: Antibacterial activity against Pseudomonas aeruginosa MTCC 424 at 100 ug/ml after 18 hr by cup-plate method; conditions: MTCC 424, 18 h, read-out: DIZ
[45] = test system: Staphylococcus aureus; experiment: Antibacterial activity against Staphylococcus aureus MTCC 1430 at 1500 ug/ml after 18 hr by cup-plate method; conditions: MTCC 1430, 18 h, read-out: DIZ
[46] = test system: Penicillium chrysogenum; experiment: Antifungal activity against Penicillium chrysogenum MTCC 161 at 100 ug/ml after 18 hr by cup-plate method; conditions: MTCC 161, 18 h, read-out: DIZ
[47] = test system: Penicillium chrysogenum; experiment: Antifungal activity against Penicillium chrysogenum MTCC 161 at 1000 ug/ml after 18 hr by cup-plate method; conditions: MTCC 161, 18 h, read-out: DIZ
[48] = test system: Micrococcus luteus; experiment: Antibacterial activity against Micrococcus luteus MTCC 1538 at 1000 ug/ml after 18 hr by cup-plate method; conditions: MTCC 1538, 18 h, read-out: DIZ
[49] = test system: Penicillium chrysogenum; experiment: Antifungal activity against Penicillium chrysogenum MTCC 161 at 200 ug/ml after 18 hr by cup-plate method; conditions: MTCC 161, 18 h, read-out: DIZ
[50] = test system: Aspergillus niger; experiment: Antifungal activity against Aspergillus niger MTCC 2546 at 1000 ug/ml after 18 hr by cup-plate method; conditions: MTCC 2546, 18 h, read-out: DIZ
[51] = test system: Escherichia coli; experiment: Antibacterial activity against Escherichia coli MTCC 1573 at 200 ug/ml after 18 hr by cup-plate method; conditions: MTCC 1573, 18 h, read-out: DIZ
[52] = test system: Bacillus pumilus; experiment: Antibacterial activity against Bacillus pumilus MTCC 1456 at 500 ug/ml after 18 hr by cup-plate method; conditions: MTCC 1456, 18 h, read-out: DIZ
[53] = test system: Bacillus pumilus; experiment: Antibacterial activity against Bacillus pumilus MTCC 1456 after 24 hr by broth dilution method; conditions: MTCC 1456, 24 h
[54] = test system: Bacillus pumilus; experiment: Antibacterial activity against Bacillus pumilus MTCC 1456 at 200 ug/ml after 18 hr by cup-plate method; conditions: MTCC 1456, 18 h, read-out: DIZ

O=c1c(/C=N/c2nc[nH]n2)coc2ccccc12
15 mm: zone of inhibition at 200 µg/mL [7] | zone of inhibition at 200 µg/mL [9] | zone of inhibition at 500 µg/mL [11] | zone of inhibition at 200 µg/mL [21] | zone of inhibition at 100 µg/mL [46]
22 mm: zone of inhibition at 1500 µg/mL [22] | zone of inhibition at 1500 µg/mL [39]
20 mm: zone of inhibition at 1500 µg/mL [10] | zone of inhibition at 1500 µg/mL [16] | zone of inhibition at 1500 µg/mL [37] | zone of inhibition at 1000 µg/mL [47] | zone of inhibition at 1000 µg/mL [50]
11 mm: zone of inhibition at 100 µg/mL [6] | zone of inhibition at 100 µg/mL [38]
14 mm: zone of inhibition at 500 µg/mL [3] | zone of inhibition at 100 µg/mL [14] | zone of inhibition at 100 µg/mL [44] | zone of inhibition at 200 µg/mL [51]
17 mm: zone of inhibition at 1000 µg/mL [20] | zone of inhibition at 500 µg/mL [25] | zone of inhibition at 500 µg/mL [32] | zone of inhibition at 200 µg/mL [49] | zone of inhibition at 500 µg/mL [52]
200 µg/mL: MIC [4] | MIC [5] | MIC [29]
18 mm: zone of inhibition at 1500 µg/mL [1] | zone of inhibition at 200 µg/mL [15] | zone of inhibition at 1000 µg/mL [23] | zone of inhibition at 1000 µg/mL [34] | zone of inhibition at 1000 µg/mL [48]
23 mm: zone of inhibition at 1500 µg/mL [30]
21 mm: zone of inhibition at 1500 µg/mL [26]
16 mm: zone of inhibition at 200 µg/mL [2] | zone of inhibition at 500 µg/mL [8] | zone of inhibition at 500 µg/mL [17] | zone of inhibition at 100 µg/mL [28] | zone of inhibition at 1000 µg/mL [33] | zone of inhibition at 200 µg/mL [54]
13 mm: zone of inhibition at 100 µg/mL [12] | zone of inhibition at 200 µg/mL [42] | zone of inhibition at 100 µg/mL [43]
300 µg/mL: MIC [35] | MIC [41]
19 mm: zone of inhibition at 500 µg/mL [13] | zone of inhibition at 500 µg/mL [27] | zone of inhibition at 1000 µg/mL [31] | zone of inhibition at 1000 µg/mL [36] | zone of inhibition at 1500 µg/mL [45]
400 µg/mL: MIC [18] | MIC [19] | MIC [40] | MIC [53]
12 mm: zone of inhibition at 100 µg/mL [24]
